# Laboratory results taken from patent US10189794B2, “Heteroaryl compounds and uses thereof” (Celgene CAR LLC, priority 2013, dated 2019).
# Entries after “also recorded” stand apart in the source; their conditions may differ. Like-named read-outs stand apart in the source and are kept apart here.
# Legend:
# [1] = target: FGFR4-WT (Homo sapiens (Human), UniProt P22455); test: Omnia assay for potency assessment against FGFR4 enzyme; format: biochemical; conditions: read-out: FGFR4 IC50
# Protocol: A 10× stock solution of FGFR4-WT (PR4380C), (from Invitrogen, Carlsbad, Calif.) corresponding to method a in Table 7, was prepared as described below. Alternatively, a 10× stock solution of FGFR4-WT (F01-11G), (SignalChem, Richmond, BC) corresponding to method b in Table 7, was prepared as described below. A solution of 1.4×ATP (AS001A) and 5×Tyr-Sox conjugated peptide substrate (KNZ3101) were prepared in IX kinase reaction buffer consisting of 20 mM Tris, pH 7.5, 5 mM MgCl2, 1 mM EGTA, 5 mM β-glycerophosphate, 5% glycerol (10× stock, KB002A) and 0.2 mM DTT (DS001A). […] The serially diluted compounds were prepared on a Tecan EVO100. A second addition of 10 μl of Tyr-Sox FGFR4 substrate was added to each well and the kinase reactions were started with the addition of 35 μL of 1.4×ATP. The reactions were monitored every 71 seconds for 240 minutes at λex360/λem485 in a Synergy plate reader from BioTek (Winooski, Vt.).
# [2] = target: T1, pFGFR4 in MDA-MB-453 cells (Homo sapiens (Human), UniProt P22455, Y367C); test: FGFR4 signaling (phospho-FGFR4) in MDA-MB-453 cells; format: cell-based; conditions: 1 hr treatment
# Protocol: Huh7 cells were grown in DMEM (Invitrogen, Carlsbad, Calif.) supplemented with 10% FBS (Invitrogen) and 1% Penicillin-Streptomycin (P/S, Lonza, Walkersville, Md.).
# For the MSD and ELISA assays, total FGFR4 antibodies were obtained from R&D Systems (Minneapolis, Minn.) and used at 1:500. For the immunoblotting (Western blotting) assay, total FGFR4 antibody was obtained from Santa Cruz (Santa Cruz, Calif.) and used at 1:1000. Phospho-FGFR antibodies were obtained from Cell Signaling (Danvers, Mass.) or R&D Systems and used at 1:1000. The phopho-FGFR antibody from Cell Signaling was used for immunoblotting, whereas the phopho-FGFR antibody from R&D was used for MSD and ELISA assays. Secondary antibodies were used at 1:10,000. The goat anti-mouse IgG IRDye 800CW antibody was obtained from LiCor Biosciences (Lincoln, Nebr.) and the goat anti-rabbit IgG Alexa Fluor 680 was obtained from Invitrogen. The anti-rabbit Sulfo-tag and anti-streptavidin Sulfo-tag antibodies was obtained from Meso Scale Discovery (Gaithersburg, Md.), and were used at 1:1000 and 1:5000, respectively.
# For MDA-MB-453 cells signaling, cells were grown in 96-well poly-D-lysine plates (BD Bioscience, San Jose, Calif.) to 90% confluence, and were then incubated in low-serum (0.1% FBS) media for 16-18 hr. […] After treatment, the cells were washed with cold PBS (Invitrogen) and were immediately lysed by freeze/thawing 3× in 32 μL of cold Cell Extraction Buffer (Invitrogen) which was supplemented with Complete Protease inhibitors (Roche, Indianapolis, Ind.) and PhosphoSTOP (Roche) phosphatase inhibitors.
# Phospho-protein signals were quantitated using Odyssey Infrared Imaging (Li-Cor Biosciences).
# To assess phospho-FGFR signaling, the blots were probed with anti-Phospho-FGFR (Y653/Y654) and total anti-FGFR antibodies. The phospho-FGFR signal was normalized to total FGFR expression for each sample. […] The normalized data was fitted using a sigmoidal curve analysis program (Graph Pad Prism version 5) with variable Hill slope to determine the EC50 values.
# After treatment, the cells were washed with cold PBS (Invitrogen), and were immediately lysed by freeze/thawing 3× in 32 μL of cold Cell Extraction Buffer (Invitrogen), which was supplemented with Complete Protease inhibitors (Roche) and PhosphoSTOP (Roche) phosphatase inhibitors.
# MSD plates (Meso Scale Discovery) were coated with total FGFR-4 antibodies overnight at 4° C. A lysate (25 μL) was added to the MSD plate overnight at 4° C. The MSD signals were obtained by incubating with a phospho-FGFR antibody (R&D Systems) and an anti-rabbit sulfo-tag antibody (Meso Scale), for 2 hr at room temperature. […] The data was fitted using a sigmoidal curve analysis program (Graph Pad Prism version 5) with variable Hill slope to determine the EC50 values.
# MDA-MB-453 cells were grown in 96-well poly-D-lysine plates (BD Bioscience, San Jose, Calif.) to 90% confluence. The cells were then incubated in low-serum (0.1% FBS) media for 16-18 hr. […] After treatment, the MDA-MB-453 cells were washed with cold PBS (Invitrogen) and were immediately lysed by freeze/thawing 3× in 32 μL of cold Cell Extraction Buffer (Invitrogen), which was supplemented with Complete Protease inhibitors (Roche) and PhosphoSTOP (Roche) phosphatase inhibitors.
# Nunc-immuno plates (96-well; Sigma, St. Louis, Mo.) were coated with total FGFR-4 antibodies overnight at 4° C. A lysate (25 μL) was added to the plate for 2 hr at room temperature. A phospho-FGFR detection antibody (100 μL) was added per well for 2 hr at room temperature, followed by a goat anti-rabbit HRP antibody (100 μL) for 45 min. […] The data was fitted using a sigmoidal curve analysis program (Graph Pad Prism version 5) with variable Hill slope to determine the EC50 values.
# [3] = tested on: Huh7 cells; test: Cell proliferation, Huh7 (CellTiter Glo); format: cell-based; conditions: Homo sapiens, Huh-7; Huh7; 120 hr; read-out: Cell Proliferation GI50 (nM) HUH
# Protocol: The growth inhibition (GI50) values were determined by Graph Pad Prism.
# [4] = target: pFGFR4 in Huh7 cells (Homo sapiens (Human), UniProt P22455); test: FGFR4 signaling (phospho-FGFR4) in Huh7 cells, MSD; format: cell-based; conditions: Meso Scale assay (MSD), 1 hr treatment, read-out: Signaling EC50 (nM) pFGFR4 (Huh)
# [5] = tested on: MDA-MB-453 cells; test: Cell proliferation, MDA-MB-453 (CellTiter Glo); format: cell-based; conditions: Homo sapiens; MDA-MB-453; 96 hr; read-out: Cell Proliferation GI50 (nM) MDA
# [6] = target: FGFR4 in MDA-MB-453 cells (Homo sapiens (Human), UniProt P22455, Y367C); test: Target occupancy assay with biotinylated covalent probe I-127; format: cell-based; conditions: MDA-MB-453 lysate; 2 μM biotinylated probe I-127
# Protocol: In order to assess free FGFR4 protein a biotinylated covalent probe was utilized. […] The reaction was incubated for 2 hr at room temperature. The samples and probe mixture were transferred to a FGFR4-coated MSD plate for 2 hr at room temperature. MSD signals were obtained with an anti-streptavidin Sulfo-tag (Meso Scale) antibody for 1 hr at room temperature.
# If a compound completely (100%) covalently modies FGFR4 no free FGFR4 should be available for covalent modification by the biotinylated probe and subsequent binding to streptavidin and detection.
# [7] = target: T1, pFGFR4 in MDA-MB-453 cells; test: Washout experiment (duration of pFGFR4 inhibition); format: cell-based; conditions: 1000-2000 nM for 1 hr, washed, up to 24 hr
# Protocol: The cells were allowed to settle down for 4 hrs and were then maintained in low-serum (0.1% FBS) media overnight.
# The following morning, the media was removed and the cells were treated with 1000-2000 nM of test compound in low-serum media for 1 hr. The cells were washed free of test compound (3×) with PBS (Invitrogen). One set of cells was immediately lysed as indicated above as the 0 hr time point. The remaining cells were incubated with the appropriate complete growth media (10-20% FBS) for 1, 2, 4, 8, 16 (in certain circumstances) and 24 hr. DMSO (0.5%) controls were collected at all time points.
# [8] = Method A immunoblotting (Western blotting)
# [9] = method a: Invitrogen FGFR4-WT 10 nM, ATP 300 uM, Y10-Sox 10 uM
# Chain of FGFR4-WT (P22455 22-802): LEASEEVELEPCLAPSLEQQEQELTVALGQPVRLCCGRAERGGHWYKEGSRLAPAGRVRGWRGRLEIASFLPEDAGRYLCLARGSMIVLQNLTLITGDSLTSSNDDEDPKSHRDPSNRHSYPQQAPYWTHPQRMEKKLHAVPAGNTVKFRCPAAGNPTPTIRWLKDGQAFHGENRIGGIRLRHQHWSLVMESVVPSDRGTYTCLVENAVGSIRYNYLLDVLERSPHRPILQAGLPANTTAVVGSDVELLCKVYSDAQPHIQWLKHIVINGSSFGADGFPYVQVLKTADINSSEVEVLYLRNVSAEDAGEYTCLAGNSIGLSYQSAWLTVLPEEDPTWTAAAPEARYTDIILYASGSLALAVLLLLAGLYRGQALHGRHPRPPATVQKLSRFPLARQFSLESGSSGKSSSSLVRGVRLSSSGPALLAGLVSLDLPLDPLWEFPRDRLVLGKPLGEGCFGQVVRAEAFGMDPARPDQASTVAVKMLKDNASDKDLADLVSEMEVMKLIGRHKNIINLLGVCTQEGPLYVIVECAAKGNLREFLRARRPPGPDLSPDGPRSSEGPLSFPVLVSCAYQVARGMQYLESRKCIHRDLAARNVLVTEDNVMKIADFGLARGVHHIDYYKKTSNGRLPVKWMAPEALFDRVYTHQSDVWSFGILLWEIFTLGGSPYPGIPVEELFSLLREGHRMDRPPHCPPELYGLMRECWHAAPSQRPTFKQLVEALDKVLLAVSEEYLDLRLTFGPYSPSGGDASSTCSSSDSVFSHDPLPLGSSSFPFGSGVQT
# Chain of FGFR4 in MDA-MB-453 cells (P22455 22-802 Y367C): as the sequence (P22455 22-802) above, with Y346C counted along it
# T1 sequence (P22455 22-802 Y367C): as the sequence (P22455 22-802) above, with Y346C counted along it
# Chain of pFGFR4 in Huh7 cells (P22455 22-802): as the sequence (P22455 22-802) above
SMILES,IC50 [1] [nM],"EC50 [2, 8] [nM]",GI50 [3] [nM],EC50 [4] [nM],GI50 [5] [nM],EC50 [6] [nM],"IC50 [1, 9] [nM]",duration of action against pFGFR4 signalling after washout [7],EC50 ([2]; Method C ELISA) [nM],"IC50 ([1]; method b: SignalChem FGFR4-WT 2.5 nM, ATP 250 uM, Y10-Sox 10 uM) [nM]"
C=CC(=O)Nc1cccc(Nc2ncc3c(n2)N(Cc2cccc(NC(=O)CC)c2)C(=O)N(c2c(Cl)c(OC)cc(OC)c2Cl)C3)c1 [I-232],< 100,< 100,,,,,,,,
C=CC(=O)Nc1ccccc1Nc1ncc2c(n1)N(Cc1cccc(NC(=O)CC)c1)C(=O)N(c1c(Cl)c(OC)cc(OC)c1Cl)C2 [I-1],,,101 to 500,< 100,< 100,< 100,< 100,prolonged duration of action; also recorded: has PDA,,
C=CC(=O)Nc1ccccc1Nc1ncc2c(n1)N(Cc1ccccc1)C(=O)N(c1c(Cl)c(OC)cc(OC)c1Cl)C2 [I-3],,,< 100,,< 100,< 100,,,< 100,
C=CC(=O)NC1CCCCC1Nc1ncc2c(n1)N(Cc1cscn1)C(=O)N(c1c(Cl)c(OC)cc(OC)c1Cl)C2 (racemic) [I-69],,,501 to 999,,101 to 500,,< 100,prolonged inhibition of autophosphorylation of FGFR4; also recorded: prolonged duration of action,,
C=CC(=O)Nc1ccc(Nc2ncc3c(n2)N(Cc2cccc(NC(=O)CC)c2)C(=O)N(c2c(Cl)c(OC)cc(OC)c2Cl)C3)cc1 [I-233],,< 100,,,,,,,,< 100
CCC(=O)Nc1cccc(CN2C(=O)N(c3c(Cl)c(OC)cc(OC)c3Cl)Cc3cnc(Nc4ccccc4NC(=O)CC)nc32)c1 [I-234],,101 to 500,,,> 1000,> 1000,,does not show prolonged duration of action; also recorded: does not have PDA,,
